Data published in US20250271421A1, “KIT FOR QUANTITATIVE ANALYSIS OF C-REACTIVE PROTEIN, METHOD FOR QUANTITATIVE ANALYSIS OF C-REACTIVE PROTEIN, AND APPARATUS FOR PERFORMING THE SAME” (I-sens, Inc., priority 2024, published 2025).

Experiments:
[1] = system: blood cells in fresh venous whole blood samples (HCT 48%); test: Evaluation of hemolytic effect of hemolytic reagents (first absorbance/turbidity); assay type: cell-based; details: for first absorbance: 750 nm, below 0.05 = hemolytic effect; for hemolytic effects on the blood cells in the blood sample: in most concentration ranges
Protocol: To select hemolytic reagents with a hemolytic effect capable of lysing the blood cells in a blood sample, five candidate hemolytic reagents were selected. Each candidate hemolytic reagent was applied to fresh venous whole blood samples (HCT 48%). The background measurement values (i.e., the first turbidity or first absorbance) of samples treated with each candidate hemolytic reagent were measured. Specifically, the first absorbance of the samples was measured at a wavelength of 750 nm using the A1Care Analyzer by i-SENS, Inc.
The five candidate hemolytic reagents are listed below Table 1. […] A candidate hemolytic reagent was evaluated to have a hemolytic effect on the blood sample if the first turbidity of the sample was below 0.05.

[2] = system: immune reaction between CRP and Anti-CRP antibodies; test: Evaluation of antigen-antibody reactivity by hemolytic reagents (second absorbance, 7-Level CRP Serum Samples)
Protocol: The concentrations of each candidate hemolytic reagent were determined as follows Table 2, taking into account the sample influence, including hematocrit.
Furthermore, each candidate hemolytic reagent was applied to 7-Level CRP Serum Samples, followed by an immune reaction between the hemolyzed samples and latex particles coated with Anti-CRP antibodies. Specifically, latex particles coated with Anti-CRP antibodies supplied by RANDOX were concentrated and stabilized with the addition of a stabilizer. The immune reaction was configured to occur between the hemolyzed samples and the latex particles coated with Anti-CRP antibodies.
After the immune reaction, the absorbance of each sample after the immune reaction (referred to as the second absorbance or second turbidity) was measured. Specifically, the second absorbance of the samples was measured at a wavelength of 750 nm using the A1Care Analyzer by i-SENS, Inc.
As for the control group, the experiment was designed to measure the second absorbance after the immune reaction between the 7-Level CRP Serum Samples without the addition of any hemolytic reagent and the latex particles coated with Anti-CRP antibodies. Additionally, the concentrations of the 7-Level CRP Serum Samples were varied from 0 to 195.8 mg/L, and the second absorbance was measured for each sample.

[3] = system: immunoreagent (R2) containing Anti-CRP antibodies (latex particles coated with Anti-CRP antibodies); test: Accelerated stability by stabilizers (1), 50° C., 7 days, 1-Level CRP Serum Sample; assay type: physicochemical; details: stabilizer concentrations as in Table 4
Protocol: To select a stabilizer that ensures the storage stability of the immunoreagent (R2) containing Anti-CRP antibodies, five candidate stabilizers were chosen. Each candidate stabilizer was added to latex particles coated with Anti-CRP antibodies and dried. The reagent solution and 1-Level CRP Serum Sample (CRP 60 mg/L) were added to the dried composition to facilitate the immune reaction between CRP and Anti-CRP antibodies. After the immune reaction, the absorbance was measured to obtain the baseline measurement value for storage on day 0. […]
Furthermore, the dried compositions, containing each candidate stabilizer added to latex particles coated with Anti-CRP antibodies, were stored in an oven at 50° C. […] The immune reaction between CRP and Anti-CRP antibodies was carried out, and the absorbance after the immune reaction was measured to obtain the measurement values for storage days 1, 2, 3, 4, 5, 6, and 7.
As for the control group, the experiment was configured to measure the absorbance after the immune reaction between the 1-Level CRP Serum Sample (CRP 60 mg/L) without the addition of any stabilizer and latex particles coated with Anti-CRP antibodies.
Furthermore, deviations (Bias) were calculated based on the baseline measurement value and the measurement values obtained over the storage period. […]

[4] = system: immunoreagent (R2) containing Anti-CRP antibodies (latex particles coated with Anti-CRP antibodies); test: Accelerated stability by stabilizers (2), 50° C., 7 days, 3-Level CRP Serum Samples; assay type: physicochemical; details: 100 mM
Protocol: To select a stabilizer for ensuring the storage stability of the immunoreagent (R2) containing Anti-CRP antibodies, two candidate stabilizers (Trehalose and Sucrose) with confirmed through Experimental Example 4 storage stability effects were prepared. Each candidate stabilizer was added to latex particles coated with Anti-CRP antibodies and dried. The reagent solution and 3-Level CRP Serum Samples (CRP 10 mg/L, 50 mg/L, 150 mg/L) were added to the dried compositions, and the immune reaction between CRP and Anti-CRP antibodies was carried out. After the immune reaction, the absorbance was measured to obtain the baseline measurement value of storage on day 0.
Each candidate stabilizer was added to latex particles coated with Anti-CRP antibodies, and the dried compositions were stored in an oven at 50° C. The reagent solution was stored separately under refrigeration. At 1-day intervals over a period of 7 days, the reagent solution and 3-Level CRP Serum Samples (CRP 10 mg/L, 50 mg/L, 150 mg/L) were added to the dried compositions containing each candidate stabilizer. The immune reaction between CRP and Anti-CRP antibodies was conducted, and the absorbance after the immune reaction was measured to obtain the measurement values for storage days 1, 2, 3, 4, 5, 6, and 7.
Based on the baseline measurement value and the measurement values obtained during the storage period, deviations (Bias) were calculated.
Additionally, for each condition, the experiment was repeated 5 times, and precision (CV) was calculated.
The two candidate stabilizers are listed below Table 5, and stabilizers with deviations (Bias) measured within 20% throughout the storage period were evaluated as effective for ensuring the storage stability of the immunoreagent (R2). Stabilizers with precision (CV) measured within 10% were evaluated as having excellent precision.

[5] = CRP Serum (50 mg/L, Mid), up to storage day 7
[6] = CRP Serum (150 mg/L, High), up to storage day 7

dissolution of the dried Anti-CRP antibodies (visually confirmed) [3]	deviation (Bias) compared to baseline on day 0 [4, 5] [%]	deviation (Bias) compared to baseline on day 0 [4, 6] [%]	Molecule	hemolytic effects on the blood cells in the blood sample [1]	other results
–	–	–	Sodium deoxycholate [SDC]	exhibited hemolytic effects	first absorbance ([1]; reagent concentration range 0.10-0.11 (w/v %)): greater than 0.05; first absorbance ([1]; reagent concentration range 0.12-0.20 (w/v %)): less than 0.05; effect of the hemolytic reaction on the antigen-antibody reaction between CRP and Anti-CRP antibodies ([2]; 0.13% SDC, 0.03% Saponin): did not affect the antigen-antibody reaction
dissolved properly	≤ 20	≤ 20	OC[C@H]1O[C@H](O[C@H]2O[C@H](CO)[C@@H](O)[C@H](O)[C@H]2O)[C@H](O)[C@@H](O)[C@@H]1O [Trehalose]	–	deviation (Bias) compared to baseline on day 0 ([4]; CRP Serum (10 mg/L, Low), storage days 5 and 7): > 20%
dissolved properly	≤ 20	≤ 20	OC[C@H]1O[C@@](CO)(O[C@H]2O[C@H](CO)[C@@H](O)[C@H](O)[C@H]2O)[C@@H](O)[C@@H]1O [Sucrose]	–	deviation (Bias) compared to baseline on day 0 ([4]; CRP Serum (10 mg/L, Low), up to storage day 7): ≤ 20%
–	–	–	CCCCCCCCCCCCCC(=O)NCCC[N+](C)(C)CCCS(=O)(=O)[O-] [ASB-14]	exhibited hemolytic effects	first absorbance ([1]; reagent concentration range 0.01-0.03 (w/v %)): greater than 0.05; first absorbance ([1]; reagent concentration range 0.04-0.20 (w/v %)): less than 0.05; decrease of absorbance corresponding to the CRP concentration compared to the control group ([2]; 750 nm, 0.05% ASB-14, CRP serum 0 to 195.8 mg/L): ≥ 50%
